US4931553A, “Platinum-polymer complexes and their use as antitumor agents” (priority 1988, dated 1990)

Legend:
[1] = test system: tumors responsive to cisplatin and/or DACH-Pt and bisplatinum complex therapy; test: Anti-tumor activity (statement for the pyran copolymer complex); settings: in vivo
[2] = cited from earlier work
[3] = test system: L1210 murine tumor; test: L1210 murine tumor model in BDF1 mice (T/C% and cures); assay type: in vivo
Procedure: Some of the specific compounds of the examples above were tested by NCI against L1210 murine tumor model in BDF1 mice. The tumored mice were injected ip with solutions of compounds on days 1, 5, and 9 after the cell innoculum. The results of the experiments were evaluated on day 30 and are expressed as the quotient of the median survival time in days of test animals divided by median day of death of the untreated control mice, multiplied by 100 (T/C%). Mice with no sign of tumor on day 30 are considered as cured.
T/C = Ratio of test evaluation to control evaluation expressed as
percentage. More precisely, T/C = Median survival time of test animals
× 100 (Median survival time of control).

[4] = Aqueous solubility of polymeric platinum prodrugs; assay type: physicochemical; settings: for Aqueous solubility / Appearance: Table I; for Appearance: appearance of the aqueous solution; for Solubility of the complex: temperature not stated; for Solubility at RT: room temperature
From the text: Three polyacrylic acid polymers of weight average molecular weight 2000, 5000, 15,000 were used as ligands for complexation with Pt(DACH)(NO3)2 to determine the effect of molecular weight on the physical properties and antitumor properties of the complexes. […] In addition to polyacrylic acids, polymethacrylic acid of 15,000 weight average molecular weight and isotactic and syndiotactic polymethacrylic acid polymers of about 5000 Mw were used as ligands. The polyacrylates were complexed with Pt(DACH)(NO3)2 in aqueous solution at pH 4-6.

[5] = test system: x5563 Plasma Cell Myeloma; test: Inhibition of tumor weight, x5563 Plasma Cell Myeloma implanted subcutaneously; assay type: in vivo, mice; settings: day 30
Procedure: (§1) In addition to the L1210 tumor line, Pt(trans-DACH)carboxyamylose (Pt:Polymer=1:6) was screened against additional murine tumor models. In these experiments, tumor of a known weight was implanted subcutaneously to the mice. The mice were then treated with the compound on day 1, 5, 9 schedule. On day 30, the tumors were reweighed and the results are expressed as percent inhibition of tumor weight.

[6] = test system: M5 ovarian Carcinoma; test: Inhibition of tumor weight, M5 ovarian Carcinoma implanted subcutaneously; assay type: in vivo, mice; settings: day 30
Procedure: as §1

[7] = test system: Lewis Lung; test: Inhibition of tumor weight, Lewis Lung implanted subcutaneously; assay type: in vivo, mice; settings: day 30
Procedure: as §1

[8] = test system: CA - 755 Adenocarcinoma; test: Inhibition of tumor weight, CA-755 Adenocarcinoma implanted subcutaneously; assay type: in vivo, mice; settings: day 30
Procedure: as §1

[9] = Aqueous solubility of polymeric platinum prodrugs; assay type: physicochemical; settings: Table I; for Appearance: appearance of the aqueous solution
[10] = test system: animal tumors; settings: in vivo; cited from earlier work
[11] = test system: malignancies in humans; settings: in vivo; cited from earlier work
[12] = Table 2, 10 mg/kg, ip days 1, 5, 9, day 30
[13] = Table 2, 10 mg/kg, ip days 1, 5, 9, no sign of tumor on day 30
[14] = Table 2, 20 mg/kg, ip days 1, 5, 9, day 30
[15] = Table 2, 20 mg/kg, ip days 1, 5, 9, no sign of tumor on day 30

Question: Which “Anti-tumor activity (in words)” value [1] does the source give for “(trans-DACH) Pyran Copolymer Complex [Example 19]” here?
Answer: exhibits anti-tumor activity

Question: With DACH-Pt(OH2)Cl2 (IV) as the substance, how does the “Solubility of platinum-amine complexes (at most sparingly soluble)” value ([2]; at most sparingly soluble) read?
Answer: < 1 mg/mL

Question: Which T/C [3, 12] does the source give for “Pt(trans DACH)Carboxy amylopectin (176,000 Mw) [Example 17]” here?
Answer: 357%

Question: What about the Cures [3, 13] of the same substance?
Answer: 3/6

Question: And the T/C [3, 14]?
Answer: 261%

Question: What about the Cures [3, 15] of the same substance?
Answer: 1/6

Question: And the Aqueous solubility [4]?
Answer: 725 mg/mL

Question: And the Appearance [4]?
Answer: clear

Question: What about the “Solubility of the complex” value [4] of the same substance?
Answer: greater than 25 mg per ml

Question: With “Pt(trans-DACH)CO oxyalginic Acid (75.000 Mw) [Example 15]” as the substance, how does the “Solubility in 10% sodium bicarbonate solution” value ([4]; 10% sodium bicarbonate, 40° C.) read?
Answer: 25 mg/mL

Question: For “Pt(trans-DACH)Carboxy Amylopectin (176.000 Mw) [Example 7 (freeze-dried)]”, which “Solubility at 50° C.” value [4] is on record?
Answer: 25 mg/mL

Question: Which T/C [3, 12] does the source give for “Pt(trans-DACH)Carboxy Amylopectin (176.000 Mw) [Example 7]” here?
Answer: 337%

Question: What about the Cures [3, 13] of the same substance?
Answer: 4/6

Question: And the T/C [3, 14]?
Answer: 314%

Question: And the Cures [3, 15]?
Answer: 2/6

Question: And the Cures ([3]; Table 3, 10 mg/kg)?
Answer: 4/6

Question: What about the T/C ([3]; Table 3, 10 mg/kg) of the same substance?
Answer: 337

Question: And the Cures ([3]; Table 3, 20 mg/kg)?
Answer: 2/6

Question: And the T/C ([3]; Table 3, 20 mg/kg)?
Answer: 314

Question: And the Aqueous solubility [4]?
Answer: 25 mg/mL

Question: What about the Appearance [4] of the same substance?
Answer: clear

Question: For “Pt(trans-DACH)Carboxy Amylose (4,800 Mw) [Example 6]”, which “Solubility at 50° C.” value [4] is on record?
Answer: 20 mg/mL

Question: Which “Solubility at 50° C.” value [4] does the source give for “Pt(trans-DACH)Carboxy Amylose (50% degree of Oxidation) [Example 13]” here?
Answer: 25 mg/mL

Question: With “Pt(trans-DACH)Carboxy Amylose (176.000 Mw) [Example 5]” as the substance, how does the “% Inh. of tumor weight” value ([5]; dose 5, days 1, 5, 9) read?
Answer: 100%

Question: And the “% Inh. of tumor weight” value ([5]; dose 10, days 1, 5, 9)?
Answer: 100%

Question: And the “% Inh. of tumor weight” value ([5]; dose 20, days 1, 5, 9)?
Answer: 100%

Question: And the T/C [3, 12]?
Answer: 269%

Question: What about the Cures [3, 13] of the same substance?
Answer: 1/6

Question: What about the T/C [3, 14] of the same substance?
Answer: 269%

Question: What about the Cures [3, 15] of the same substance?
Answer: 2/6

Question: And the T/C ([3]; Table 2, 40 mg/kg, ip days 1, 5, 9, day 30)?
Answer: 292%

Question: And the Cures ([3]; Table 2, 40 mg/kg, ip days 1, 5, 9, no sign of tumor on day 30)?
Answer: 2/6

Question: What about the “% Inh. of tumor weight” value ([6]; dose 5, days 1, 5, 9) of the same substance?
Answer: 64%

Question: What about the “% Inh. of tumor weight” value ([6]; dose 10, days 1, 5, 9) of the same substance?
Answer: 86%

Question: What about the “% Inh. of tumor weight” value ([6]; dose 20, days 1, 5, 9) of the same substance?
Answer: 99%

Question: What about the “% Inh. of tumor weight” value ([7]; dose 1.25, days 1, 5, 9) of the same substance?
Answer: 20%

Question: And the “% Inh. of tumor weight” value ([7]; dose 2.5, days 1, 5, 9)?
Answer: 37%

Question: And the “% Inh. of tumor weight” value ([7]; dose 5, days 1, 5, 9)?
Answer: 34%

Question: And the “% Inh. of tumor weight” value ([8]; dose 5, days 1, 5, 9)?
Answer: 69%

Question: And the “% Inh. of tumor weight” value ([8]; dose 10, days 1, 5, 9)?
Answer: 81%

Question: What about the “% Inh. of tumor weight” value ([8]; dose 20, days 1, 5, 9) of the same substance?
Answer: 94%

Question: And the Aqueous solubility [4]?
Answer: 10 mg/mL

Question: What about the Appearance [4] of the same substance?
Answer: clear

Question: Which Aqueous solubility [9]; 6 does the source give for “Pt(trans-DACH)Carboxy Dextran (11.700 Mw)” here?
Answer: 100 mg/mL

Question: What about the Appearance [9]; 6 of the same substance?
Answer: clear

Question: For “Pt(trans-DACH)Carboxy Dextran (11.700 Mw) [Example 8]”, which Aqueous solubility [9]; 2 is on record?
Answer: 25 mg/mL

Question: What about the Appearance [9]; 2 of the same substance?
Answer: cloudy

Question: What about the “Solubility at 50° C.” value [4] of the same substance?
Answer: 25 mg/mL

Question: Which “Solubility at RT” value [4] does the source give for “Pt(trans-DACH)Carboxy Dextran (21,200 Mw) [Example 9]” here?
Answer: 100 mg/mL

Question: For “Pt(trans-DACH)Carboxy Dextran (40,000 Mw) [Example 18]”, which Aqueous solubility [4] is on record?
Answer: 730 mg/mL

Question: And the Appearance [4]?
Answer: clear

Question: What about the “Solubility of the complex” value [4] of the same substance?
Answer: greater than 30 mg per ml

Question: With “Pt(trans-DACH)Carboxy Dextran (47,000 Mw) [Example 10]” as the substance, how does the “Solubility in water at room temperature and up to 50° C. (in words)” value ([4]; water, room temperature and up to 50° C.) read?
Answer: insoluble in water at room temperature and up to 50 °C

Question: With “Pt(trans-DACH)Carboxy Dextran Sulfate (6,000 Mw) [Example 11]” as the substance, how does the “Solubility at RT” value [4] read?
Answer: 50 mg/mL

Question: For “Pt(trans-DACH)Carboxy Dextran, 11,700 Mw (58% Degree of Oxidation) [Example 12]”, which “Solubility at RT” value [4] is on record?
Answer: 100 mg/mL

Question: Which “Solubility in aqueous solution (in words)” value ([4]; aqueous solution) does the source give for “Pt(trans-DACH)Carboxy Polygalacturonic Acid [Example 14]” here?
Answer: Insoluble in aqueous solution

Question: Which Aqueous solubility [4] does the source give for “Pt(trans-DACH)Carboxyamylose (176,000 Mw) [Example 16]” here?
Answer: 725 mg/mL

Question: What about the Appearance [4] of the same substance?
Answer: clear

Question: And the “Solubility of the complex on slight warming” value ([4]; on slight warming)?
Answer: greater than 25 mg per ml

Question: Which “Solubility in water (in words)” value ([4]; water) does the source give for “Pt(trans-DACH)Polyacrylate (5000 Mw) [Example 2]” here?
Answer: very soluble in water

Question: With “Pt(trans-DACH)polyacrylate (2000 Mw) [Example 1]” as the substance, how does the “Solubility in water (in words)” value ([4]; water) read?
Answer: very soluble in water

Question: Which results are given for cis-[Pt(NH3)2 Cl2 ] [cisplatin]?
Answer: T/C ([3]; Table 3, 5 mg/kg): 175 ± 5; Effectiveness against animal tumors (in words) [10]: effective against several types of animal tumors; Use in human malignancies (in words) [11]: used successfully in treating certain types of malignancies in humans; Water solubility ([2]; in water): about 1 mg/ml
